Experimental data from US20090263492A1, “Diagnostic Methods and Genetic Markers for Alzheimer Disease” (priority 2006, published 2009).

Tested on: macrophages of AD patients
Experiment: Phagocytosis of FITC-amyloid-beta (1-42) by macrophages of AD patients
Format: cell-based, human
Details: in vitro treatment during Aβ phagocytosis, fluorescence/confocal microscopy
Text: (§1) Peripheral blood mononuclear cells (PBMC's) and macrophages. AD patients were recruited at the time of enrollment in a double-blind study of curcumin Complex 3 in progress at UCLA. The diagnostic criteria for AD satisfied the National Institute of Neurological and Communicative Disorders and the AD and Related Disorders Association criteria for probable Alzheimer's disease. Normal age-matched control subjects were recruited. PBMC's were isolated by the Ficoll Hypaque gradient technique from venous blood. To prepare macrophage slide cultures, 50,000 PBMC's were cultured in each well of an 8-chamber polystyrene vessel glass slide in Iscove's medium with 10% autologous serum until differentiated into adherent macrophages (7-14 days).
Phagocytosis assay and confocal microscopy. Macrophages were exposed to FITC-amyloid-beta (1-42) (2 μg/ml) overnight, fixed with 4% paraformaldehyde, permeabilized with 0.1% Triton X-100, blocked with 1% BSA in PBS and stained with Rab 5 or EEA1 antibodies by indirect immunofluorescence; lysosomes were stained intravitally by the Lyso-Tracker probe; macrophages were stained using anti-CD68; neurons were stained using anti-NeuN. The preparations were examined using fluorescence and confocal microscopy.
Ability of monocytes to clear Aβ in the brain. Co-culture of freshly isolated monocytes with sections of AD frontal lobe to test the ability of monocytes to clear Aβ in the brain was done. One third of control monocytes became saturated with Aβ in 2 days and 100% in 4 days. […] Apoptosis of macrophages treated with Aβ was done with the SR-VAD-FMK polycaspase assay. Differentiated macrophages were treated with curcuminoids or analogs in the medium overnight and were then exposed to FITC-Aβ (1-42) to 2.5 μg/ml, incubated for 24 or 48 h and examined by fluorescence or confocal microscopy.
Curcuminoids reverse defective phagocytosis of amyloid-beta by macrophages of individual AD patients. […] Macrophages were visualized using anti-CD68 or fluorescent phalloidin with a fluorescence microscope.

Row | Compound | effect on Aβ phagocytosis/uptake by AD macrophages
1 | IGF-1: the hormone insulin-like growth factor (IGF-I) | improves Aβ phagocytosis

Tested on: control macrophages
Experiment: Phagocytosis / uptake of FITC-Aβ by control macrophages
Format: cell-based, human
Details: Example 5; control or AD macrophages not specified
Text: as §1
Phagocytosis assay and confocal microscopy. […] The preparations were examined using fluorescence and confocal microscopy. […]
Curcuminoids reverse defective phagocytosis of amyloid-beta by macrophages of individual AD patients. […] Macrophages were visualized using anti-CD68 or fluorescent phalloidin with a fluorescence microscope. […]

Row | Compound | block of uptake of Aβ
2 | Fucoidan | did not block uptake of Aβ

Tested on: Mgat3 transcription
Experiment: qPCR of Mgat3 transcription in PBMC's from AD patients cultured with Aβ and test agent
Format: cell-based, human
Parameters: key to Relative Activity: relative ratio of Mgat3 transcription in AD/Mgat3 transcription in control cells: Dash (−) indicates minimal effect; (+) indicates a ratio of 1.0-1.5; (++) indicates a ratio of 1.5-2.0; (+++ to ++++) indicates a ratio of 2.0 and above; (+++ to ++++) indicates a ratio of 2.0 and above
Details: Homo sapiens; curcumins 0.1 uM, PBMC's from AD patients cultured overnight with Aβ, 2 hours incubation, qPCR; read-out: Relative Activity: relative ratio of Mgat3 transcription in AD/Mgat3 transcription in control cells
Method: RNA Isolation and qPCR. RNA was isolated as above from PBMC's (10 million) of each subject, which were cultured overnight with or without Aβ (2 μg/ml); and cDNA was synthesized using the iSCRIPT cDNA Synthesis Kit. The expression levels of the genes of interest were tested by qPCR on a real-time PCR detector and normalized to the levels of the housekeeping gene 36B4 with the following primers: […]
SYBR Green reactions were carried out with the IQ SYBR Green mix. Reactions were run on a Continuous Fluorescence detector and analyzed. The relative quantities of the gene tested per sample were calculated against 36B4 using the ΔΔC(T) formula as previously described. The results are expressed as log [MGAT (or TLR) RNA (with Aβ)/MGAT (or TLR) RNA (without Aβ)] for each specimen. For evaluation of curcumins or curcumin analogs the above assay was used. Curcumins (0.1 uM) were added to PBMC's from AD patients cultured overnight with ±Aβ as above. After 2 hours of incubation with the curcumin or analog, RNA was isolated and cDNA was synthesized as above. The expression levels of Mgat3 or TLR transcription was quantified and normalized to the levels of housekeeping genes and compared to cells treated with curcumin or analogs with or without Aβ vs. untreated cells. The amount of Mgat3 (or TLR) RNA with Aβ and test agent/Mgat3 (or TLR) RNA withal alone)] for each cell preparation in the presence of test agent was determined. The ratio was used to determine the potency of the agent tested. Potent compounds had elevated ratios (>1.5) and were used to rank the relative activity of each test agent (Table 2).
Curcumins. […] Crude natural product derived materials (i.e., curcuminoids) enhance phagocytosis of Aβ by macrophages from AD patients in approximately 50% of the cases examined. […] The material was purified to near homogeneity and identified by LCMS as bisdesmethoxycurcumin on the basis of its molecular ion and fragmentation pattern. To verify the biological activity of this minor constituent, bisdesmethoxycurcumin was chemically synthesized and tested in the phagocytosis and transcription assays described above (see Example 4). Compared with curcumin, both the bisdesmethoxycurcumin material isolated by chromatography and the chemically synthesized bisdesmethoxycurcumin material optimally stimulated phagocytosis at 0.1 μM. To determine whether functional improvement would be accompanied by biochemical changes, we tested transcriptional up-regulation of MGA T3 and TLR's in PBMC's from AD patients and controls in the presence of Aβ with bisdesmethoxycurcumin (0.1 μM) in comparison to Aβ alone. […] Thus, curcumins (0.1 uM) were added to PBMC's from AD patients cultured overnight with Aβ as above. After 2 hours of incubation, RNA was isolated and cDNA was synthesized. The expression levels of Mgat3 or TLR transcription was quantified and normalized to the levels of housekeeping genes and compared to cells treated with curcumin or analogs without Aβ. The amount of Mgat3 (or TLR) RNA with test agent and Aβ)/Mgat3 (or TLR) RNA (with Aβ alone)] for each cell preparation in the presence of test agent was determined. The ratio was used to determine the potency of the agent tested. Potent compounds had elevated ratios (>1.5) and were used to rank the relative activity (Table 2).
Mgat3 and TLR transcription in cells from AD and control patients. We tested by qPCR Mgat3 and/0or TLR transcription in cells from AD patients and compared the results to those obtained from age-matched controls (Table 2). As discussed above, activation or up-regulation of macrophage Mgat3 or TLR's results in many functional outcomes, including the enhancement of […] and removal of Aβ, increased apoptosis, secretion of inflammatory cytokines, and other anti-AD antimicrobial activities. […] Thus, the ratio of Mgat3 or TLR transcription upon Aβ stimulation of AD versus control PBMCs provides an indicator and sensitive method to test the in vitro efficacy of drug candidates. […]

Row | Compound | fold induction at 0.1 µM
3 | CC(C)(C)c1ccc(/C=C/C(=O)/C=C(O)/C=C/c2ccc(C(C)(C)C)cc2)cc1 [Compound 10, (1E,4Z,6E)-1,7-bis(4-tert-butylphenyl)-5-hydroxyhepta-1,4,6-trien-3-one] | 1 to 1.5
4 | COc1ccc(C=CC(=O)C=C(O)C=Cc2ccc(OC)c(O)c2)cc1O [Compound 5g, 5-Hydroxy-1,7-bis-(3-hydroxy-4-methoxy-phenyl)-hepta-1,4,6-trien-3-one] | 1 to 1.5
5 | O=C(/C=C(O)/C=C/c1ccccc1)/C=C/c1ccccc1 [Compound 6, (1E,4Z,6E)-5-hydroxy-1,7-diphenylhepta-1,4,6-trien-3-one] | 1 to 1.5
6 | COc1cc(O)ccc1C=CC(=O)C=C(O)C=Cc1ccc(O)cc1OC [Compound 5i, 5-Hydroxy-1,7-bis-(4-hydroxy-2-methoxy-phenyl)-hepta-1,4,6-trien-3-one] | 1.5 to 2
7 | COc1cc(C=CC(=O)C=C(O)C=Cc2ccc(O)c(OC)c2)ccc1O [Compound 5h, 5-Hydroxy-1,7-bis-(4-hydroxy-3-methoxy-phenyl)-hepta-1,4,6-trien-3-one] | 1 to 1.5
8 | COc1ccccc1C=CC(=O)C=C(O)C=Cc1ccccc1OC [Compound 5l, 5-Hydroxy-1,7-bis-(2-methoxy-phenyl)-hepta-1,4,6-trien-3-one] | ≥ 2
9 | CN(C)c1ccc(C=CC(=O)C=C(O)C=Cc2ccc(N(C)C)cc2)cc1 [Compound 5f, 1,7-Bis-(4-dimethylamino-phenyl)-5-hydroxy-hepta-1,4,6-trien-3-one] | ≥ 2
10 | O=C(C=Cc1cccc(O)c1)C=C(O)C=Cc1cccc(O)c1 [Compound 5e, 5-Hydroxy-1,7-bis-(3-hydroxy-phenyl)-hepta-1,4,6-trien-3-one] | 1 to 1.5

Same assay, conditions: curcumins 0.1 uM, PBMC's from AD patients cultured overnight with Aβ, 2 hours incubation, qPCR

Row | Compound | Relative Activity: relative ratio of Mgat3 transcription in AD/Mgat3 transcription in control cells
11 | COc1ccc(C=CC(=O)C=C(O)C=Cc2ccc(OC)cc2O)c(O)c1 [Compound 5j, 5-Hydroxy-1,7-bis-(2-hydroxy-4-methoxy-phenyl)-hepta-1,4,6-trien-3-one] | −
12 | CC(=O)Oc1ccc(C=CC(=O)C=C(O)C=Cc2ccc(OC(C)=O)cc2)cc1 [Compound 5c, Aceticacid 4-[7-(4-acetoxy-phenyl)-5-hydroxy-3-oxo-hepta-1,4,6-trienyl]-phenyl ester] | −
13 | O=C(C=Cc1ccc(O)c(Cl)c1)C=C(O)C=Cc1ccc(O)c(Cl)c1 [Compound 5k, 1,7-Bis-(3-chloro-4-hydroxy-phenyl)-5-Hydroxy-hepta-1,4,6-trien-3-one] | −
14 | CC(C)(C)C(=O)Oc1ccc(C=CC(=O)CC(=O)C=Cc2ccc(OC(=O)C(C)(C)C)cc2)cc1 [Compound 5d, 2,2-Dimethyl-propionic acid 4-{7-[4-(2,2-dimethyl-propionyloxy)-phenyl]-3,5-dioxo-hepta-1,6-dienyl}-phenyl ester] | −
15 | COc1ccc(C=CC(=O)C=C(O)C=Cc2ccc(OC)cc2)cc1 [Compound 5b, 5-Hydroxy-1,7-bis-(4-methoxy-phenyl)-hepta-1,4,6-trien-3-one] | −
16 | Cc1ccc(/C=C/C(=O)/C=C(O)/C=C/c2ccc(C)cc2)cc1 [Compound 7] | ++ ((++) indicates a ratio of 1.5-2.0)
17 | O=C(/C=C(O)/C=C/c1cccc(F)c1)/C=C/c1cccc(F)c1 [Compound 8] | + ((+) indicates a ratio of 1.0-1.5)
18 | CSc1ccc(/C=C/C(=O)/C=C(O)/C=C/c2ccc(SC)cc2)cc1 [Compound 9] | ++++ ((+++ to ++++) indicates a ratio of 2.0 and above)

Tested on: not given
Experiment: not given
Details: not given

Row | Compound | melting point [°C]
19 | COc1ccc(C=CC(=O)C=C(O)C=Cc2ccc(OC)c(O)c2)cc1O [Compound 5g, 5-Hydroxy-1,7-bis-(3-hydroxy-4-methoxy-phenyl)-hepta-1,4,6-trien-3-one] | 182.8
